Among the test systems are DLD-1 colon; DMS 114 small cell lung; KM20L2 colon; LXFL 529 NSCLC; RXF-631 renal; XF 498 CNS; BT-549 breast; MDA-MB-435; MDA-N.
Holding throughout (assay): DTP human tumour cell line panel, 48 h

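The compound was tested at five concentrations on cells cultured in 96-well plates, with a 48-hour exposure period. GI50 = concentration required for 50% inhibition of growth. TGI denotes the concentration required for complete inhibition of growth.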

Take `Cc1cc2c(=O)c3ccccc3[nH]c2c(C(N)=O)c1C`: the TGI with DLD-1 colon, with DMS 114 small cell lung, with KM20L2 colon, in the experiment with LXFL 529 NSCLC, with RXF-631 renal and in the experiment with XF 498 CNS was more than 100 µM throughout.
As to `CCOC(=O)c1ccc(/C(C)=N/NC(N)=S)cc1`, the TGI in the experiment on DLD-1 colon, with DMS 114 small cell lung, in the experiment with KM20L2 colon, in the experiment with LXFL 529 NSCLC, with RXF-631 renal and with XF 498 CNS was more than 100 µM each time.
`O=C(OC1CCC(=C2SCCCS2)[C@H]1C1SCCCS1)c1ccccc1` (some centres undefined): the TGI with DLD-1 colon, in the experiment with DMS 114 small cell lung, in the experiment with KM20L2 colon, with LXFL 529 NSCLC and in the experiment on RXF-631 renal was more than 100 µM each time.
As for `O=C(CC1C(=O)Nc2ccccc2S1=O)Nc1cc(Cl)ccc1Cl` (centres undefined), the TGI in the experiment with DLD-1 colon, in the experiment on DMS 114 small cell lung, in the experiment on KM20L2 colon, with LXFL 529 NSCLC, in the experiment with RXF-631 renal and in the experiment with XF 498 CNS was more than 100 µM each time.
`Cc1ccc2nc(/C(=C/c3ccc(/C=C(\NC(=O)c4ccccc4)c4nc5ccc(C)cc5[nH]4)c(C)c3)NC(=O)c3ccccc3)[nH]c2c1`: the TGI with DLD-1 colon is more than 100 µM; with DMS 114 small cell lung, 69.6 µM; in the experiment with KM20L2 colon, 45.3 µM; with LXFL 529 NSCLC it was 12.2 µM; with RXF-631 renal, 91.3 µM; with XF 498 CNS it was 36.5 µM.
Consider `O=C(Nc1cccc(Cl)c1)C(=O)C(C(=O)c1ccc2ccccc2c1)C1OC(=O)c2ccccc21` (centres undefined), for which the TGI in the experiment with DLD-1 colon is 32.7 µM; with DMS 114 small cell lung, 79.3 µM; in the experiment with KM20L2 colon it was more than 100 µM; in the experiment with LXFL 529 NSCLC it was 21.9 µM; with RXF-631 renal, 81.2 µM.
Taken in the same sequence, the figures for `COC(=O)C(=Cc1cc(OC)c(OC)c(OC)c1-c1cc2c(cc1C1(C)OCCS1)OCO2)C(=O)OC` (centres undefined) were more than 100 µM, more than 100 µM, more than 100 µM, more than 100 µM and more than 100 µM.
For `Cc1nc(Nc2ccc(Cl)cc2)sc1C(=O)NNC(=S)NN`, the TGI stood at 30.7 µM in the experiment with DLD-1 colon; 39 µM with DMS 114 small cell lung; 32.5 µM in the experiment on KM20L2 colon; 36.4 µM in the experiment on LXFL 529 NSCLC; 36.1 µM in the experiment on RXF-631 renal; 38.4 µM in the experiment with XF 498 CNS.
With `N#C/C(=C\c1ccc2ccccc2c1)C(=O)c1ccccc1`, the TGI is more than 100 µM in the experiment on BT-549 breast; more than 100 µM with DLD-1 colon; more than 100 µM with DMS 114 small cell lung; more than 100 µM with KM20L2 colon; more than 100 µM in the experiment on LXFL 529 NSCLC; 43.2 µM with MDA-MB-435. Besides, the TGI in the experiment on MDA-N and with XF 498 CNS was more than 100 µM each time.
Turning to `Cc1ccccc1C(=O)c1cc(O)ccc1O`, the TGI with DLD-1 colon, with DMS 114 small cell lung, in the experiment on KM20L2 colon, in the experiment with LXFL 529 NSCLC, with RXF-631 renal and in the experiment with XF 498 CNS was more than 100 µM each time.
Regarding `N#CC(C(=O)/C(=N\NC(N)=O)C(C#N)c1ccc(Cl)cc1)c1ccc(Cl)cc1` (centres undefined), the TGI in the experiment on DLD-1 colon, with DMS 114 small cell lung, in the experiment on KM20L2 colon, with LXFL 529 NSCLC, in the experiment on RXF-631 renal and in the experiment on XF 498 CNS was more than 100 µM throughout.
As for `C/C(CC(=O)Nc1ccc(C)c(C)c1)=N\N(c1ccccc1)c1ccccc1`, the TGI with DLD-1 colon is more than 100 µM; with DMS 114 small cell lung, 33.2 µM; with KM20L2 colon it was 26 µM; with LXFL 529 NSCLC, more than 100 µM; in the experiment on XF 498 CNS, more than 100 µM.
With `Cc1c(N(C)C)ccc2c(=O)c3cccc(CC(=O)O)c3oc12`, the total growth inhibition concentration (TGI) with BT-549 breast, in the experiment on DLD-1 colon, in the experiment on DMS 114 small cell lung, with KM20L2 colon, in the experiment with MDA-MB-435 and in the experiment with MDA-N was more than 100 µM throughout. In addition, the TGI with RXF-631 renal is more than 100 µM.
`C#CC1/C(=C\C(=O)OC)CCCC1O` (centres undefined): the TGI with DLD-1 colon, with DMS 114 small cell lung, with KM20L2 colon, in the experiment with LXFL 529 NSCLC and with XF 498 CNS was more than 100 µM in each case.
As for `Cc1ccc(C)c(NC(=O)c2cccc([N+](=O)[O-])c2O)c1`, the TGI with DLD-1 colon was more than 100 µM; in the experiment with DMS 114 small cell lung, 47.6 µM; in the experiment on KM20L2 colon it was more than 100 µM; in the experiment with LXFL 529 NSCLC, more than 100 µM; in the experiment with XF 498 CNS, 67.3 µM.
For the molecule `O=C1N=C2Sc3ccc4ccccc4c3N2C1=O`, the TGI is 95 µM in the experiment with DLD-1 colon; more than 100 µM with DMS 114 small cell lung; 64.4 µM in the experiment with KM20L2 colon; 37.7 µM in the experiment on LXFL 529 NSCLC; 51.9 µM in the experiment on RXF-631 renal; 41.3 µM in the experiment on XF 498 CNS.
As for `COC(=O)/C(=C/c1ccc(OC)cc1)C(C(=O)O)=C1CCCC1`, the TGI with DLD-1 colon, in the experiment on KM20L2 colon, in the experiment with LXFL 529 NSCLC, in the experiment with RXF-631 renal and with XF 498 CNS was more than 100 µM each time.
For `COc1ccc(OCC(=O)O)c2c1CCCC2=O`, the TGI with DLD-1 colon, with DMS 114 small cell lung, with LXFL 529 NSCLC, in the experiment on RXF-631 renal and in the experiment on XF 498 CNS was more than 100 µM each time.
Turning to `CN(C)C(=S)/N=c1\sn(C)/c(=N\C(=S)N(C)C)n1C`, the TGI in the experiment on DLD-1 colon, with KM20L2 colon, in the experiment with LXFL 529 NSCLC, in the experiment with RXF-631 renal and in the experiment with XF 498 CNS was more than 100 µM throughout.
With `COC(=O)/C(C#N)=C1\N=NNN1c1ccc(OC)cc1`, the TGI in the experiment with DLD-1 colon, in the experiment on DMS 114 small cell lung, in the experiment with LXFL 529 NSCLC and with RXF-631 renal was more than 100 µM throughout.
On to `COc1ccc2c(c1OCC(=O)O)C(=O)C(CCC(=O)O)CC2` (centres undefined), for which the TGI in the experiment on DLD-1 colon, in the experiment on DMS 114 small cell lung, in the experiment on KM20L2 colon, in the experiment on LXFL 529 NSCLC, in the experiment with RXF-631 renal and in the experiment on XF 498 CNS was more than 100 µM throughout.
`COC1C(OC(=S)Nc2ccccc2)c2ccccc2N1C(C)=O` (centres undefined): the TGI in the experiment on DLD-1 colon, in the experiment on DMS 114 small cell lung, with KM20L2 colon, in the experiment with LXFL 529 NSCLC and in the experiment on XF 498 CNS was more than 100 µM each time.
Take `COc1ccc(CCN(C)C2CCC(C#N)(c3ccc(OC)c(OC)c3)CC2)cc1OC` (centres undefined): the TGI in the experiment with DLD-1 colon, with KM20L2 colon, with LXFL 529 NSCLC, in the experiment on RXF-631 renal and in the experiment with XF 498 CNS was more than 100 µM in each case.
With `CC1(C)COC(c2cccc3c2C(=O)c2cccc(Cl)c2-3)=N1`, the TGI in the experiment with DMS 114 small cell lung, in the experiment with KM20L2 colon, in the experiment with LXFL 529 NSCLC, in the experiment on RXF-631 renal and with XF 498 CNS was more than 100 µM each time.
Consider `CCC[CH2][Sn]([CH2]CCC)([O]C(=O)c1ccc(OC)c(OC)c1OC)[O][Sn]([CH2]CCC)([CH2]CCC)[O]C(=O)c1ccc(OC)c(OC)c1OC`, for which the GI50 was 0.241 µM in the experiment on BT-549 breast; 0.147 µM in the experiment on DLD-1 colon; 0.0281 µM in the experiment on DMS 114 small cell lung; 0.76 µM in the experiment with KM20L2 colon; 0.02 µM with LXFL 529 NSCLC; 0.579 µM in the experiment on MDA-MB-435. For the same molecule, the GI50 was 0.357 µM in the experiment on MDA-N and 0.104 µM with XF 498 CNS. For the same molecule, the TGI in the experiment with BT-549 breast was 1.15 µM; in the experiment on DLD-1 colon it was 0.419 µM; with DMS 114 small cell lung, 0.171 µM; in the experiment on KM20L2 colon, 2.12 µM; with LXFL 529 NSCLC it was 0.0938 µM; in the experiment on MDA-MB-435 it was 1.9 µM. Besides, the figures for the TGI in the experiment on MDA-N and with XF 498 CNS were 1.66 µM and 0.229 µM, respectively.
`CSc1nc(SC)c2c(C#N)[nH]nc2n1`: the TGI with DLD-1 colon, in the experiment with DMS 114 small cell lung, with KM20L2 colon, in the experiment with RXF-631 renal and in the experiment with XF 498 CNS was more than 100 µM in each case.

Broadly, the TGI is the concentration at which net growth stops. For orientation: GI50 means the concentration at which growth is held to half of that of the control.
